{"source": "patent US20240115550A1", "about": "“TREATMENT OF MENTAL DISORDERS” (GH Research Ireland Limited, priority 2022, published 2024)", "key": {"[1]": {"assay": "Infant exposure estimate (DID, RID) from breast milk concentrations"}, "[2]": {"test_system": "human hepatocytes (Hμrel HumanPool co-culture)", "assay": "Metabolic stability in Hμrel human hepatocyte co-culture", "assay_type": "in vitro ADME", "description": "The incubations were performed using 1 and 10 μM initial concentrations and sampling at 0, 1, 2, 4, 8, 24, 48, and 72 hours (h) time points. The samples were analysed using UPLC/QE-orbitrap-MS."}, "[3]": {"test_system": "human plasma protein", "assay": "Plasma binding of 5-MIAA", "assay_type": "in vitro ADME", "description": "Binding to human plasma protein was determined. Reported are the unbound fraction (fu) for three replicates as well as the mean unbound fraction, the standard deviation and the mean % recovery (Table 8)."}, "[4]": {"assay": "LC-MS/MS of 5-MeO-DMT and metabolites in breastmilk, serum and urine of a lactating PPD patient"}, "[5]": {"test_system": "patients with postpartum depression (PPD)", "assay": "Clinical trial of inhaled 5-MeO-DMT in postpartum depression", "assay_type": "in vivo, human", "conditions": "for MADRS response (>=50% improvement) and remission (total <=10): 6 mg then 12 mg", "procedure": "The single-arm, open-label clinical trial will involve 15 adult female patients with clinically diagnosed postpartum depression (PPD).\nThe second dose (12 mg) will only be administered if: • a. A peak experience (total score of ≥75) has not been achieved following the 6 mg dose, and • b. The 6 mg dose was safe and well-tolerated according to the investigator, • c. Any psychoactive effects (PsE) of the prior dose have subsided, and • d. Pre-dose vital parameters and forced expiratory volume in one second (FEV1) are in normal range, or if outside of the normal range, are not clinically significant according to the investigator. • 3. Similarly, a third dose (18 mg) will only be administered if: • a. A peak experience (total score of ≥75) has not been achieved following the 12 mg dose, and • b. The 12 mg dose was safe and well-tolerated according to the investigator, and • c. Any PsE of the prior dose have subsided, and • d. Pre-dose vital parameters and forced expiratory volume in one second (FEV1) are in normal range, or if outside of the normal range, are not clinically significant according to the investigator.\nThe patients will be assessed for a peak psychedelic experience (based on a patient-scored visual analogue scale, the PE scale), sedation, and other endpoints after dosing. Follow-up visits are planned for Day 1, and Day 7 after the dosing day.\nThe following criteria must be met by all patients considered for clinical trial participation: • 1. Is female and in the age range between 18 and 45 years (inclusive) at screening. • 2. Has a body mass index (BMI) in the range of 18.5 and 35 kg/m^2 (inclusive) at screening. • 3. Meets the trial criteria for PPD as assessed by a trial psychiatrist or registered psychologist: • a. Diagnosis of Major Depressive Disorder without psychotic features, confirmed by the Mini-International Neuropsychiatric Interview (MINI), with peri-partum onset that began no earlier than gestation and no later than the first 4 weeks postpartum. • b. Has a Montgomery-Åsberg Depression Rating Scale (MADRS) total score of equal to or greater than 28 at screening and pre-dose on Day 0. • 6. […] Patients must have a negative pregnancy test at screening and on the pre-test day (Day −1). • 5. Is willing to delay start of other antidepressant or anxiety medication until after the end of the trial at Day 7 and agrees to keep any psychotherapy unchanged during the trial.\nA potential patient who meets any of the following key exclusion criteria will be excluded from participation in this trial: • 1. Has, based on history, psychiatric assessment, and evaluation of the MINI, a current or prior diagnosis of bipolar disorder, a manic or hypomanic episode, a psychotic disorder, Major Depressive Disorder (MDD) or other mood disorder with psychotic features, obsessive compulsive disorder, post-traumatic stress disorder (PTSD), autism spectrum disorder, borderline personality disorder, schizophrenia, delusional disorder, paranoid personality disorder, schizoaffective disorder, clinically significant intellectual disability, or any other psychiatric comorbidity that renders the patient unsuitable for the trial according to the investigator's judgment. • 2. Has one or more first or second degree relatives with a current or previously diagnosed bipolar disorder, psychotic disorder or other mood disorder (including MDD) with psychotic features. • 3. Is in the judgement of a trial psychiatrist or registered psychologist, at significant risk for suicide based on history, psychiatric assessment, and evaluation of suicidal ideation and suicidal behaviour based on the Columbia-Suicide Severity Rating Scale (C-SSRS). • 4. Has taken anti-depressive medication within 14 days or 5 half-lives (whichever is longer) prior to dosing (exception: within the last 5 weeks in the case of fluoxetine). • 5."}, "[6]": {"assay": "Pharmacokinetics after single inhaled dose", "assay_type": "in vivo, human"}, "[7]": {"test_system": "Salmonella typhimurium (TA98, TA100, TA1535 and TA1537)", "assay": "Bacterial mutation test, Salmonella typhimurium", "assay_type": "cell-based", "conditions": "up to 5000 μg/plate, absence and presence of S-9", "description": "(§1) These conditions included treatments at concentrations up to 5000 μg/plate (the maximum recommended concentration according to current regulatory guidelines), in the absence and in the presence of a rat liver metabolic activation system (S-9)."}, "[8]": {"test_system": "Escherichia coli (WP2 uvrA pKM101)", "assay": "Bacterial mutation test, Escherichia coli", "assay_type": "cell-based", "conditions": "up to 5000 μg/plate, absence and presence of S-9", "description": "as §1"}, "[9]": {"conditions": "2.5 hours after last 5-MeO-DMT dose"}, "[10]": {"conditions": "female, human, breast milk, inhaled"}}, "note": "Several values for one entry are separate records, joined by “and”; a condition that tells them apart may be missing. Equal entries are not always repeated."}
{"compound": "5-methoxyindole acetic acid [5-MIAA]", "values": [{"measurement": "DID per kg", "setting": "[1]; 5 kg infant", "value": 0.001377, "unit": "mg/kg/day"}, {"measurement": "total exposure of the infant (DID)", "setting": "[1]; three feeds of 250 ml", "value": 0.006886, "unit": "mg 5-MIAA/day"}, {"measurement": "remaining abundance", "setting": "[2]; after 72h with hepatocytes, 1 and 10 μM", "value": "75-82%"}, {"measurement": "in vitro intrinsic clearance", "setting": "[2]; human hepatocytes, 1 μM", "value": 0.15, "unit": "μl/min/million cells"}, {"measurement": "plasma binding", "setting": "[3]; from mean fraction unbound", "value": "~50", "unit": "%"}, {"measurement": "Mean % Recovery", "setting": "[3]; human plasma", "value": 81.4, "unit": "%"}, {"measurement": "unbound fraction (fu), Replicate 1", "setting": "[3]; human plasma", "value": 0.499}, {"measurement": "unbound fraction (fu), Replicate 2", "setting": "[3]; human plasma", "value": 0.462}, {"measurement": "unbound fraction (fu), Replicate 3", "setting": "[3]; human plasma", "value": 0.544}, {"measurement": "Mean fu", "setting": "[3]; human plasma, three replicates", "value": 0.502}, {"measurement": "urine concentration, times higher than in serum", "setting": "[4]; 5-MIAA at 2.5 hours", "value": "approx. 127 times"}, {"measurement": "5-MIAA concentration in breast milk", "setting": "[4]; 1 hour after last 5-MeO-DMT dose", "value": 13945.2}, {"measurement": "5-MIAA concentration in breast milk", "setting": "[4]; [9]", "value": 13240.9}, {"measurement": "5-MIAA urine concentration", "setting": "[4]; [9]", "value": 12}, {"measurement": "5-MIAA concentration in breast milk", "setting": "[4]; 8.5 hours after last 5-MeO-DMT dose", "value": 359.4}]}
{"compound": "COc1ccc2[nH]cc(CCN(C)C)c2c1", "note": "[5-MeO-DMT]", "values": [{"measurement": "MADRS response (>=50% improvement) and remission (total <=10)", "setting": "[5]; first PPD patient", "value": "fulfilled standard criteria"}, {"measurement": "BIMF management domain, percentage improvement", "setting": "[5]; first PPD patient, Day 7", "value": 18, "unit": "%"}, {"measurement": "BIMF self-care domain, percentage improvement", "setting": "[5]; first PPD patient, Day 7", "value": 44, "unit": "%"}, {"measurement": "adverse events", "setting": "[5]; first PPD patient: cramping left abdominal pain and headache, Day 0", "value": "mild, short-lasting and resolved spontaneously"}, {"measurement": "MADRS item score", "setting": "[5]; first PPD patient, Day 1, as E149", "value": 0}, {"measurement": "BPRS item score", "setting": "[5]; first PPD patient, Day 1, rows as E155", "value": 1}, {"measurement": "BPRS item score", "setting": "[5]; first PPD patient, Day 7, rows as E155", "value": 1}, {"measurement": "BPRS item score", "setting": "[5]; first PPD patient, Discharge, item by row: r24 Somatic Concern, r25 Anxiety, r26 Emotional withdrawal, r28 Conceptual disorganization, r30 Guilt feelings, r31 Tension, r32 Mannerisms and Posturing, r34 Grandiosity, r35 Depressive Mood, r36 Hostility, r37 Suspiciousness, r38 Hallucinatory behaviour, r40 Motor retardation, r41 Uncooperativeness, r42 Unusual Thought Content, r44 Blunted affect, r45 E", "value": 1}, {"measurement": "MADRS response (>=50% improvement) and remission (total <=10)", "setting": "[5]; second PPD patient", "value": "fulfilled standard criteria"}, {"measurement": "adverse events", "setting": "[5]; second PPD patient: vomiting Day 0, headache Day 5", "value": "mild, short-lasting and resolved spontaneously"}, {"measurement": "detectability in plasma", "setting": "[6]; 3 hours after inhalation", "value": "no longer detectable"}, {"measurement": "accumulation upon repeated administration", "setting": "[6]; repeated within 1 to 4 hours", "value": "No accumulation"}, {"measurement": "mutation induction", "setting": "[7]", "value": "did not induce mutation"}, {"measurement": "mutation induction", "setting": "[8]", "value": "did not induce mutation"}, {"measurement": "Daily Infant Dosage (DID) per kg", "setting": "[1]; 5 kg infant", "value": 0.0001385, "unit": "mg/kg/day"}, {"measurement": "detection in breast milk", "setting": "[4]; after 24 hours", "value": "did not detect"}, {"measurement": "concentration at 2.5 h", "setting": "[4]; [10]", "value": 561, "unit": "µg/mL"}, {"measurement": "concentration at 8.5 h", "setting": "[4]; [10]", "value": 42.1, "unit": "µg/mL"}]}
{"compound": "COc1ccc2[nH]cc(CCO)c2c1", "note": "[5-methoxytryptophol, 5-methoxyindole-3-ethanol]", "values": [{"measurement": "relative LC/MS peak area for 5-methoxytryptophol", "setting": "[2]; 0 h, incubation by row: r7 1 μM Hepatocytes, r8 1 μM Stromal cells, r9 10 μM Hepatocytes, r10 10 μM Stromal cells", "value": 100, "unit": "%"}, {"measurement": "relative LC/MS peak area for 5-methoxytryptophol", "setting": "[2]; 1 h, as E141", "value": "79% and 87%"}, {"measurement": "relative LC/MS peak area for 5-methoxytryptophol", "setting": "[2]; 2 h, as E141", "value": "57% and 81%"}, {"measurement": "metabolic turnover", "setting": "[2]; in 24 h with hepatocytes", "value": "complete disappearance"}]}
{"compound": "CN(C)CCc1c[nH]c2ccc(O)cc12", "note": "[bufotenine]", "values": [{"measurement": "detection in human serum", "setting": "[6]; after 5-MeO-DMT, in no case detected 15 minutes after administration", "value": "barely detected"}, {"measurement": "detection in serum and breastmilk", "setting": "[4]; any time point after 5-MeO-DMT", "value": "not detected"}, {"measurement": "Bufotenine in Breastmilk", "setting": "[4]; times by row as E172", "value": "BLQ (Below limit of quantification. The lower limit of quantification is 25 pg/ml for both 5-MeO-DMT and 5-MIAA in both serum and breastmilk; it is 25 pg/ml in urine for 5-MeO-DMT and 250 pg/ml for 5-MIAA in urine.)"}, {"measurement": "Bufotenine in Serum", "setting": "[4]; times by row as E172", "value": "BLQ (Below limit of quantification. The lower limit of quantification is 25 pg/ml for both 5-MeO-DMT and 5-MIAA in both serum and breastmilk; it is 25 pg/ml in urine for 5-MeO-DMT and 250 pg/ml for 5-MIAA in urine.)"}]}
